Data taken from patent US20130071330A1, “METHODS OF IDENTIFYING AGENTS EFFECTIVE TO TREAT COGNITIVE DECLINE AND DISEASES ASSOCIATED THEREWITH” (priority 2010, published 2013).
“Also recorded” adds a separate entry of the source.

Assays:
[1] = test system: Abeta oligomer effects on membrane trafficking; assay: MTT membrane trafficking (formazan exocytosis) assay with Abeta oligomers in mature primary neurons; type: cell-based, rat; conditions: for block of Abeta oligomer-caused decrease of intracellular formazan-filled vesicles (puncta): neurons 3 weeks in vitro, for antibody stoichiometric amount (3 μM Aβ, 1.5 μM IgG), added prior to oligomers
Protocol: (§1) MTT assay Primary neurons from E18 Sprague-Dawley rat embryos were plated at optimized concentrations in 384 well plates in NB media (Invitrogen). Neurons were maintained in cultures for 3 weeks, with twice weekly feeding of NB media with N2 supplement (Invitrogen). Vehicle or Abeta oligomer preparations (1.5 uM), followed by compounds were added to cells and incubated for 1 to 24 hr at 37° C. in 5% CO2. MTT reagent (3-(4,5-dimethylthizaol-2-yl)-2,5diphenyl tetrazolium bromide) reagent (Roche Molecular Biochemicals) was reconstituted in phosphate buffered saline to 5 mg/ml. 10 ul of MTT labeling reagent was added to each well and incubated at 37° C. for 1 h, then imaged.
Each assay plate was formatted so that compounds were tested with and without Abeta on each plate.
Experimental controls: Abeta 1-42 oligomers were made and used as positive controls. The oligomers can be made by any method, such as published methods (Dhalgren et al., '02, LeVine '04, Shrestha et al., '06, Puzzo et al., '05, Barghorn et al., '05, Johansson et al., '06). […] Negative controls included vehicle-treated neurons as well as neurons treated with Compound Z. These controls, on each plate, serve as normalization tools to calibrate assay performance on a plate-by-plate basis.
Statistical software and Analysis: Data handling and analysis was accomplished by Cellomics VTI image analysis software and STORE automated database software. Statistical comparisons were made via pairwise Tukey-Kramer analysis to determine the significance of the separation between compound+Abeta oligomers from Abeta alone, and between compound alone from vehicle. […] Power analysis was set for a number of replicate screening wells that will minimize false negatives such as N=4. Rank ordering of compounds was done on the basis of secondary assay mechanism of action and physicochemical properties of the hit structures.
Abeta 1-42 oligomers made according to published methods (Dhalgren et al., '02, LeVine '04, Shrestha et al., '06, Puzzo et al., '05, Barghorn et al., '05, Johansson et al., '06) or isolated from human brain tissue (Walsh et al., '02, Lesne et al., '06, Shankar et al '08) served as positive controls. Toxicity was monitored in each image-based assay via quantification of nuclear morphology visualized with the DNA binding dye DAPI (Invitrogen). Nuclei that were fragmented were considered to be in late stage apoptosis (Majno and Joris '95). Peptide lots producing unusual peptide size ranges or significant toxicity at standard concentrations on neurons were rejected.
Image Processing: Images are captured and analyzed with the Cellomics VTI automated microscope platform. For statistical analysis, a Tukey-Kramer pair-wise comparison with unequal variance is used.
Primary rat neurons grown for at least 3 weeks in vitro were chosen as the basis for this screening assay. […] More complex systems such as acute or organotypic brain slices are very useful but not amenable to high throughput screening. […] For this reason, primary neuronal cultures were chosen because of their ability to be used in high throughput screens and fidelity to what occurs in vivo.
The exocytosis assay was adapted for use with mature primary neuronal cultures grown for 3 weeks in vitro.

[2] = test system: Abeta assemblies isolated from patients, membrane trafficking; assay: Membrane trafficking assay with Abeta assemblies isolated from AD or normal patients; type: cell-based, rat; conditions: FIG. 4
Protocol: as §1
Abeta assemblies were isolated from patients with Alzheimer's Disease (AD) or from normal patients. The Abeta assemblies were tested for their ability to modulate membrane trafficking. […] The assay was performed as described herein.

mice = assay: Fear conditioning assay (Abeta oligomer-induced memory deficit); type: in vivo
Excerpt: The formation of contextual memories is dependent upon the integrity of medial temporal lobe structures such as the hippocampus. […] Animals that show good learning will express an increase in freezing behavior when placed back into the same context. This freezing is absent in a novel context.

O[C@H]1[C@H](O)[C@@H](O)[C@H](O)[C@@H](O)[C@@H]1O [scyllo-inositol, reference compound]
block of Abeta oligomer-caused decrease of intracellular formazan-filled vesicles (puncta) [1]: none were active

COc1cc(CCC(C)NCc2ccc(C(F)(F)F)cc2)ccc1O (centres unmarked) [Compound Z]
EC50 ([1]; Neuron, read-out: inhibits oligomer effects on membrane trafficking, EC50, primary rat neurons, Abeta oligomers, FIG. 2B): 7 µM | block of Abeta oligomer-caused decrease of intracellular formazan-filled vesicles (puncta) [1]: inhibits oligomer effects on membrane trafficking; also recorded: effective at stopping Abeta oligomer mediated effects on membrane trafficking | effect on Abeta assemblies isolated from age-matched normal individuals ([2]; Abeta assemblies from age-matched normal individuals): no effect | block of trafficking effects of AD-brain derived Abeta assemblies ([2]; IMW (10-100 KDa) Abeta assemblies isolated from AD patients): significantly blocked | block of oligomer-mediated memory deficits (contextual fear conditioning) (mice; 2 pmol dose, given prior to Abeta (200 nM), tested about 24 hours after training, p<0.05): completely blocked | block of oligomer effects on memory, dose dependence (mice; administered prior to Abeta oligomer administration): blocked oligomer effects on memory in a dose-dependent manner | adverse behavioral changes (mice; any dose): No adverse behavioral changes were observed | effect of compound alone on memory (mice; without Abeta, data not shown): No effect

C[C@]12N[C@H](Cc3ccccc31)c1ccccc12 [MK-801, reference compound]
block of Abeta oligomer-caused decrease of intracellular formazan-filled vesicles (puncta) [1]: none were active

C[N+](C)(C)CCCCCC[N+](C)(C)C [hexamethonium bromide, reference compound]
block of Abeta oligomer-caused decrease of intracellular formazan-filled vesicles (puncta) [1]: none were active
